Results as given in PMC4335062, “Data-Driven Prediction and Design of bZIP Coiled-Coil Interactions” (PLoS Computational Biology, 2015).
Like-named read-outs stand apart in the source and are kept apart here. One block for each sequence: values may come before it. Where no end group is shown, it is not given here.

Assays:
Experiment in all cases: Direct-binding FRET assay
BATF = molecular target: T1, BATF (Homo sapiens, UniProt Q16520); conditions: read-out: Kd
T1 construct: made in house
T1 sequence (Q16520 26-89 limits assumed): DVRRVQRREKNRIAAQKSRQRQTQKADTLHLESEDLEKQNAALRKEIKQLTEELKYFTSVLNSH
Protocol: (§1) The direct binding assay was performed manually in 384-well plates and is similar to a previously described assay. Wells were filled with 20 μL of 1 mM TCEP-HCl. A 4 μM stock of acceptor protein was made fresh in 1 mM TCEP-HCl, and 20 μL was titrated in 2-fold dilutions over the wells. […] The direct-binding FRET data were fit as previously described. Briefly, the Kd of the designed peptide homodimer was experimentally determined and used with previously determined target homodimer Kd values to determine the heterodimer Kd. The homodimer Kd values used for the human bZIPs were from; experiments done by […] et al. used the same protein constructs for the human bZIP proteins, the same buffer conditions, and the same assay. The fitting used a system of ordinary differential equations to describe the concentrations of homo and heterodimers formed by the donor (D) and acceptor (A) as a function of the heterodimer Kd. MATLAB was used to simulate the binding experiment for different Kd values, and the value that gave the best agreement between simulation and experiment was assigned. A minimum 15% change in the donor fluorescence upon titrating the acceptor peptide from 0 to 1000 nM was required for a fit to be attempted. If this minimum was not met, the interaction was classified as “NS” for no signal change. […] These interactions were marked “AS” to indicate anomalous signal. We attributed this to interactions between the peptides, the dyes and the walls of the assay plates at low concentrations. These curves could not be fit, given their unusual shapes at low concentrations of acceptor. For such curves, we removed the first five points and re-fit the data. […] One example of this is increasing concentrations of acceptor causing an increase in donor fluorescence.

BATF3 = molecular target: T2, BATF3 (Homo sapiens, UniProt Q9NR55); conditions: mean or single, read-out: Kd
T2 construct: made in house
T2 sequence (Q9NR55 35-98 limits assumed): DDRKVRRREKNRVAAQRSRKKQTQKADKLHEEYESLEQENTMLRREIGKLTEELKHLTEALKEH
Protocol: as §1

CREB3L1 = molecular target: T3, CREB3L1 (Homo sapiens, UniProt Q96BA8); conditions: mean or single, read-out: Kd
T3 construct: made in house
T3 sequence (Q96BA8 290-353 limits assumed): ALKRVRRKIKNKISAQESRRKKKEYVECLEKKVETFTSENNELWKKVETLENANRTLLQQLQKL
Protocol: as §1

FOSL1 = molecular target: T4, FOSL1 (Homo sapiens, UniProt P15407); conditions: read-out: Kd
T4 construct: made in house
T4 sequence (P15407 105-168 limits assumed): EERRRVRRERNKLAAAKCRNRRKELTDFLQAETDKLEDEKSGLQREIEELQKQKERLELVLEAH
Protocol: as §1

JUNB = molecular target: T5, JUNB (Homo sapiens, UniProt P17275); conditions: read-out: Kd
T5 construct: made in house
T5 sequence (P17275 268-331 limits assumed): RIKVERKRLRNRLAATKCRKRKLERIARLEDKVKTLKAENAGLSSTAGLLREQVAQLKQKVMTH
Protocol: as §1

ATF6 = ATF6 (Homo sapiens, UniProt P18850); set-up: made in house; conditions: read-out: Kd
Protocol: as §1

BACH1 = BACH1 (Homo sapiens, UniProt O14867); set-up: made in house; conditions: read-out: Kd
Protocol: as §1

BACH2 = BACH2 (Homo sapiens, UniProt Q9BYV9); set-up: made in house; conditions: read-out: Kd
Protocol: as §1

MAF = MAF (Homo sapiens, UniProt O75444); set-up: made in house; conditions: mean or single, read-out: Kd
Protocol: as §1

MAFB = MAFB (Homo sapiens, UniProt Q9Y5Q3); set-up: made in house; conditions: mean or single, read-out: Kd
Protocol: as §1

NFE2L1 = NFE2L1 (Homo sapiens, UniProt Q14494); set-up: made in house; conditions: read-out: Kd
Protocol: as §1

[1] = 4°C, C-terminal rhodamine design, mean or single
[2] = 4°C, N-terminal rhodamine design, mean or single
[3] = 23°C, C-terminal rhodamine design, mean or single
[4] = 23°C, N-terminal rhodamine design, mean or single
[5] = 37°C, C-terminal rhodamine design, mean or single
[6] = 37°C, N-terminal rhodamine design, mean or single
[7] = 4°C, C-terminal rhodamine design
[8] = 4°C, N-terminal rhodamine design
[9] = 23°C, C-terminal rhodamine design
[10] = 23°C, N-terminal rhodamine design
[11] = 37°C, C-terminal rhodamine design
[12] = 37°C, N-terminal rhodamine design
[13] = 23°C, C-terminal fluorescein design as donor, TAMRA target titrated
[14] = 37°C, C-terminal fluorescein design as donor, TAMRA target titrated
[15] = 4°C, C-terminal fluorescein design as donor, TAMRA target titrated
[16] = 23°C, N-terminal rhodamine design, repeat 1
[17] = 23°C, N-terminal rhodamine design, repeat 2
[18] = 37°C, N-terminal rhodamine design, repeat 1
[19] = 37°C, N-terminal rhodamine design, repeat 2

NFE2L1, sequence (Q14494 654-717 limits assumed): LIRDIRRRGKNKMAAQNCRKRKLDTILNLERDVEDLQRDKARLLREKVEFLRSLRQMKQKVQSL
ATF6, sequence (P18850 306-369 limits assumed): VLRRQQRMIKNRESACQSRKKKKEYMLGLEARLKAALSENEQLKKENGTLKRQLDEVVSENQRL
BACH1, sequence (O14867 557-620 limits assumed): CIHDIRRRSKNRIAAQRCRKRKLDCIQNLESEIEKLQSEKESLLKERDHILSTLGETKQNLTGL
BACH2, sequence (Q9BYV9 646-709 limits assumed): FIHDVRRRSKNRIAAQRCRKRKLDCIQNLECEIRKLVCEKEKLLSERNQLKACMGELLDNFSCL

Kd (BATF; [1]): > 5000 nM | Kd (BATF; [2]): 136 nM | Kd (BATF; [3]): > 5000 nM | Kd (BATF; [4]): 382 nM | Kd (BATF; [5]): > 5000 nM | Kd (BATF; [6]): > 5000 nM | Kd (BATF3; [7]): 192 nM | Kd (BATF3; [8]): 52.8 nM | Kd (BATF3; [9]): 791 nM | Kd (BATF3; [10]): 315 nM | Kd (BATF3; [11]): > 5000 nM | Kd (BATF3; [12]): > 5000 nM | Kd (CREB3L1; [7]): 158 nM | Kd (CREB3L1; [8]): > 5000 nM | Kd (CREB3L1; [9]): 529 nM | Kd (CREB3L1; [10]): > 5000 nM | Kd (CREB3L1; [12]): > 1000 nM | Kd (FOSL1; [1]): 84.1 nM | Kd (FOSL1; [2]): 271 nM | Kd (FOSL1; [3]): 695 nM | Kd (FOSL1; [4]): > 5000 nM | Kd (FOSL1; [5]): > 1000 nM | Kd (JUNB; [1]): 3620 nM | Kd (JUNB; [2]): > 1000 nM | Kd (JUNB; [3]): > 1000 nM | Kd (JUNB; [4]): > 1000 nM | Kd (JUNB; [5]): > 1000 nM | Kd (JUNB; [6]): > 1000 nM | Kd (ATF6; [1]): > 5000 nM | Kd (ATF6; [2]): > 5000 nM | Kd (ATF6; [3]): > 1000 nM | Kd (ATF6; [4]): > 5000 nM | Kd (ATF6; [5]): > 1000 nM | Kd (ATF6; [6]): > 5000 nM | Kd (BACH1; [1]): > 1000 nM | Kd (BACH1; [2]): > 5000 nM | Kd (BACH1; [3]): > 1000 nM | Kd (BACH1; [4]): > 5000 nM | Kd (BACH1; [5]): > 5000 nM | Kd (BACH1; [6]): > 1000 nM | Kd (BACH2; [1]): > 5000 nM | Kd (BACH2; [2]): > 1000 nM | Kd (BACH2; [3]): > 5000 nM | Kd (BACH2; [4]): > 5000 nM | Kd (BACH2; [5]): > 5000 nM | Kd (BACH2; [6]): > 5000 nM | Kd (MAF; [7]): 790 nM | Kd (MAF; [8]): > 5000 nM | Kd (MAF; [9]): > 5000 nM | Kd (MAF; [10]): > 5000 nM | Kd (MAF; [11]): > 1000 nM | Kd (MAFB; [7]): 725 nM | Kd (MAFB; [8]): > 5000 nM | Kd (MAFB; [9]): > 5000 nM | Kd (MAFB; [11]): > 1000 nM | Kd (MAFB; [12]): > 5000 nM | Kd (NFE2L1; [1]): > 5000 nM | Kd (NFE2L1; [2]): > 1000 nM | Kd (NFE2L1; [3]): > 5000 nM | Kd (NFE2L1; [4]): > 1000 nM | Kd (NFE2L1; [5]): > 5000 nM | Kd (NFE2L1; [6]): > 1000 nM
Sequence: KRIAYLRQRIAELRNENHVLESRIQRMEKEKDALQQDRDHLEYEL [ATF5-d1]

Kd (BATF; [1]): > 1000 nM | Kd (BATF; [2]): > 5000 nM | Kd (BATF; [13]): > 1000 nM | Kd (BATF; [3]): > 1000 nM | Kd (BATF; [4]): > 1000 nM | Kd (BATF; [14]): > 1000 nM | Kd (BATF; [5]): > 1000 nM | Kd (BATF; [6]): > 1000 nM | Kd (BATF3; [7]): > 1000 nM | Kd (BATF3; [8]): > 1000 nM | Kd (BATF3; [9]): > 1000 nM | Kd (BATF3; [10]): > 1000 nM | Kd (BATF3; [11]): > 1000 nM | Kd (BATF3; [12]): > 1000 nM | Kd (CREB3L1; [7]): > 5000 nM | Kd (CREB3L1; [8]): > 1000 nM | Kd (CREB3L1; [9]): < 200 nM | Kd (CREB3L1; [10]): > 1000 nM | Kd (CREB3L1; [11]): > 1000 nM | Kd (CREB3L1; [12]): > 1000 nM | Kd (FOSL1; [15]): > 5000 nM | Kd (FOSL1; [1]): > 1000 nM | Kd (FOSL1; [2]): > 5000 nM | Kd (FOSL1; [13]): > 1000 nM | Kd (FOSL1; [3]): > 1000 nM | Kd (FOSL1; [4]): > 1000 nM | Kd (FOSL1; [14]): > 1000 nM | Kd (FOSL1; [5]): > 1000 nM | Kd (FOSL1; [6]): > 1000 nM | Kd (JUNB; [15]): > 1000 nM | Kd (JUNB; [1]): > 1000 nM | Kd (JUNB; [2]): > 1000 nM | Kd (JUNB; [13]): > 1000 nM | Kd (JUNB; [3]): > 1000 nM | Kd (JUNB; [4]): > 1000 nM | Kd (JUNB; [14]): > 1000 nM | Kd (JUNB; [5]): > 1000 nM | Kd (JUNB; [6]): > 1000 nM | Kd (ATF6; [15]): > 1000 nM | Kd (ATF6; [1]): > 1000 nM | Kd (ATF6; [2]): > 1000 nM | Kd (ATF6; [13]): > 1000 nM | Kd (ATF6; [3]): > 1000 nM | Kd (ATF6; [4]): > 1000 nM | Kd (ATF6; [14]): > 1000 nM | Kd (ATF6; [5]): > 1000 nM | Kd (ATF6; [6]): > 1000 nM | Kd (BACH1; [15]): > 1000 nM | Kd (BACH1; [1]): > 5000 nM | Kd (BACH1; [13]): > 1000 nM | Kd (BACH1; [3]): > 1000 nM | Kd (BACH1; [16]): > 1000 nM | Kd (BACH1; [17]): > 5000 nM | Kd (BACH1; [14]): > 1000 nM | Kd (BACH1; [5]): > 1000 nM | Kd (BACH1; [6]): > 1000 nM | Kd (BACH1; [18]): > 1000 nM | Kd (BACH1; [19]): > 1000 nM | Kd (BACH2; [15]): > 1000 nM | Kd (BACH2; [1]): > 5000 nM | Kd (BACH2; [2]): > 1000 nM | Kd (BACH2; [13]): > 5000 nM | Kd (BACH2; [3]): > 1000 nM | Kd (BACH2; [4]): > 5000 nM | Kd (BACH2; [14]): > 1000 nM | Kd (BACH2; [5]): > 5000 nM | Kd (BACH2; [6]): > 1000 nM | Kd (MAF; [7]): > 5000 nM | Kd (MAF; [8]): > 1000 nM | Kd (MAF; [9]): > 5000 nM | Kd (MAF; [10]): > 1000 nM | Kd (MAF; [11]): 460 nM | Kd (MAF; [12]): > 1000 nM | Kd (MAFB; [7]): > 5000 nM | Kd (MAFB; [8]): > 1000 nM | Kd (MAFB; [9]): > 5000 nM | Kd (MAFB; [10]): > 1000 nM | Kd (MAFB; [11]): 402 nM | Kd (MAFB; [12]): > 1000 nM | Kd (NFE2L1; [1]): > 5000 nM | Kd (NFE2L1; 4°C, N-terminal rhodamine design, repeat 1): > 1000 nM | Kd (NFE2L1; 4°C, N-terminal rhodamine design, repeat 2): > 1000 nM | Kd (NFE2L1; [3]): > 5000 nM | Kd (NFE2L1; [4]): > 1000 nM | Kd (NFE2L1; [16]): > 1000 nM | Kd (NFE2L1; [17]): > 1000 nM | Kd (NFE2L1; [5]): > 1000 nM | Kd (NFE2L1; [6]): > 1000 nM | Kd (NFE2L1; [18]): > 1000 nM | Kd (NFE2L1; [19]): > 1000 nM
Sequence: NQIKTLRTRLSKLRKDNLQLEKDIANLERKAKDLRAEKEQLEYEL [ATF4-d1]
